Data published in patent US20180296503A1 (priority 2014, published 2018).

Key:
[1] = tested on: rd10^+/+ mice; test: Scotopic, photopic and low background photopic electroretinograms (ERGs) in rd10+/+ mice given drug in drinking water; assay type: in vivo; conditions: for mean peak scotopic ERG b-wave amplitude compared with controls: vs controls
Method: Scotopic and photopic electroretinograms (ERGs) were recorded at P35. Scotopic, photopic and low background photopic ERGs were recorded at P50.

[2] = tested on: rd10^+/+ mice; test: Cone density in PNA-stained retinal flat mounts of rd10+/+ mice at P50; assay type: in vivo; conditions: for cone cell density compared to NAC-treated mice: P50, four quadrants
[3] = molecular target: glutamate cysteine ligase (GCL, EC 6.3.2.2); conditions: nonallosteric competitive inhibition of GCL; cited from earlier work
[4] = humans; oral dose of 600 mg; cited from earlier work
[5] = oral formulations; cited from earlier work
[6] = same oral dose or substantially lower dose than NAC, rd10+/+ mice

In the case of `CC(=O)N[C@@H](CS)C(N)=O`, the “protecting retinal function (FIGS. 1A to 1E)” value ([1]; 7 mg/ml NACA vs 7 mg/ml NAC) is reported as “better effects”, the “protecting retinal function (FIGS. 3A to 3E)” value ([1]; 7 mg/ml NACA vs 20 mg/ml NAC) is reported as “better effects” and the “mean peak scotopic ERG b-wave amplitude compared with 20 mg/ml NAC” value ([1]; P35, 7 mg/ml NACA vs 20 mg/ml NAC) is reported as “similar”. For the same compound, the “mean peak photopic b-wave amplitude, higher than in NAC-treated mice” value ([1]; P35, 7 mg/ml NACA vs 20 mg/ml NAC, p=0.024) was 41%, the “mean scotopic b-wave amplitudes compared with NAC-treated mice” value ([1]; P50, 7 mg/ml NACA vs 20 mg/ml NAC, at 10 of 11 stimulus intensities) was “significantly greater” and the “mean photopic ERG b-wave amplitude, higher than in NAC-treated mice” value ([1]; P50, 7 mg/ml NACA vs 20 mg/ml NAC, at all 3 stimulus intensities, p=0.001) was 50%. The “mean peak scotopic ERG b-wave amplitude compared with controls” value ([1]; P50, 7 mg/ml NACA) was “sustained higher amplitudes”, the “preservation of cone cell function compared with NAC” value [1, 6] was “significantly greater preservation” and the “protecting cone cell survival (FIGS. 2A to 2M)” value ([2]; 7 mg/ml NACA vs 7 mg/ml NAC) was “better effects”. For the same compound, the “protecting cone cell survival (FIGS. 4A to 4M)” value ([2]; 7 mg/ml NACA vs 20 mg/ml NAC) was “better effect”, the “cone cell density compared to NAC-treated mice” value ([2]; 7 mg/ml NACA vs 7 mg/ml NAC, p<0.0001 by ANOVA with Dunnett's correction) was “significantly greater in 3 of 4 quadrants” and the “cone cell density compared to NAC-treated mice” value ([2]; 7 mg/ml NACA vs 20 mg/ml NAC) was “significantly greater in 2 of 4 quadrants”. For the same compound, the “preservation of cone survival compared with NAC” value [2, 6] was “significantly greater preservation”.

For `N[C@@H](CCC(=O)N[C@@H](CS)C(=O)NCC(=O)O)C(=O)O` [GSH, c-L-glutamyl-L-cysteinyl-glycine], the Ki [3] is given as 2300 µM.

In the case of `CC(=O)N[C@@H](CS)C(=O)O` [NAC, N-acetyl-L-cysteine], the “mean peak scotopic ERG b-wave amplitude compared with controls” value ([1]; P50, 20 mg/ml NAC) is given as “sustained higher amplitudes”, the “time after administration at which no NAC is detectable” value [4] is given as 10 to 12 h and the systemic bioavailability [5] is given as less than 10%.
